Literature values, collected in patent publication EP3599609A1, “SYSTEM AND METHOD FOR CLEANING NOISY GENETIC DATA AND USING DATA TO MAKE PREDICTIONS” (Natera, Inc., priority 2005, dated 2007).

Details: colon cancer patients treated with irinotecan

severe diarrhea, patients affected: 31%
severe neutropenia, patients affected: 28%
SMILES: CCc1c2c(nc3ccc(OC(=O)N4CCC(N5CCCCC5)CC4)cc13)-c1cc3c(c(=O)n1C2)COC(=O)[C@]3(O)CC [irinotecan]
